System: Sprague-Dawley rats
Assay: Interleukin-1β-induced hyperalgesia (paw pressure)
Type: in vivo
Conditions: 1 μg IP; 2 hr after IL-1β intra plantar
Protocol: These experiments were performed using a modification of the methods described by Poole et al., Br. J. Pharmacol. 106:489-492 (1992); Follenfant et al., Br. J. Pharmacol. 98:41-43 (1989); and Randall and Sellito, Arch. Internatl. Pharmacodyn. 111:409-419 (1957), each of which is incorporated herein by reference. Adult male Sprague-Dawley rats (175-275 g) were tested for hyperalgesia by a paw pressure technique using variable pressure instrumentation (IITC Life Sciences; Woodland Hills, Calif.). Rats were acclimated to the housing environment and were handled for three days prior to beginning a training session. On the day before the hyperalgesia experiments was to begin, each rat was placed into a sock and two variable paw pressure tests were performed 15 min apart.
Approximately 5-10% of the rats were non-responders and were eliminated from further experiments.
Animals that responded to the paw pressure were pretreated by IP injection of various concentrations of EX-2 in a volume of 1 ml/kg (treated) or saline, alone (control). After 20 min, 100 μl of IL-1β (1U/100 μl) was administered to rats via intra plantar injection. Two hr after IL-1 administration, rats were subjected to two additional paw pressure tests and the increase in mm Hg of pressure that could be applied to the EX-2-treated rats as compared to the control rats was determined.

Ac-Nle-Gln-His-(D)Phe-Arg-(D)Trp-Gly-NH2 [EX-2]
Reduction in IL-1-induced Hyperalgesia (increase in tolerated paw pressure vs control): 125%
